Assay results taken from patent US20250290117A1, “MOLECULAR PHENOTYPIC ANTIMICROBIAL SUSCEPTIBILITY TESTING” (priority 2024, published 2025).

Legend:
[1] = system: pathogens of clinical samples; assay: Molecular phenotypic antimicrobial susceptibility test of clinical samples, extraction DNA purification step prior to PCR (Table 6); assay type: cell-based
Description: (§1) Detection of Molecular Phenotypic Antimicrobial Susceptibility. Disclosed herein are the methods for the detection of phenotypic antimicrobial susceptibility via molecular methods. The present invention describes how a specimen 100 with a known microbial load is incubated and then exposed to a panel of antimicrobial agents to determine sensitivity (prevention of growth) or resistance (allowance of growth) to the specific antimicrobial agents tested utilizing molecular methods.
(§2) Sample Collection. Specimens 100 are collected from patients using sterile collection processes that are employed in routine clinical care. Specimens are transported to the testing facility in boric acid preservative.
(§3) Preparation of the Specimens for Testing. […] The process for pathogen isolation includes steps of harvesting the pathogen (e.g., via centrifugation), isolating pathogen DNA via a DNA isolation and/or purification kit, and performing PCR on the pathogen DNA via PCR components (e.g., primers, enzymes, buffers) as would be known to the skilled artisan. […] This aliquot is used for antimicrobial susceptibility testing if indicated based on the pathogen detection results. […] Specimens 100 with lower pathogen loads could also be utilized in the antibiotic susceptibility phase of testing with or without a longer incubation period.
(§4) Preparation of Antimicrobial Susceptibility Testing Plates. Antimicrobial solutions are prepared at known concentrations. The specific antimicrobials and their concentrations are selected based on the pathogen of interest and the described antimicrobial resistance breakpoints for that specimen pathogen and antimicrobial combination. These antimicrobials have been selected based on those commonly utilized by healthcare providers in routine clinical care for the specific type of suspected infection. The number and types of antimicrobials utilized can be customized based on the infection source, pathogen detected, patient-specific factors such as allergies or other health conditions (e.g., chronic kidney disease or concurrent medication use), or healthcare provider preferences such as antimicrobial availability or cost.
(§5) The antimicrobial solutions are prepared in liquid culture media (such as Muller Hinton Broth) to achieve the desired antimicrobial concentration and are then stored at −80° C. until use. For a given specimen, each antimicrobial is tested at a single or multiple antimicrobial concentration(s) which is its established breakpoints for sensitivity. The antimicrobial solutions are prepared and plated out for each specific pathogen. […] This allows for evaluation of pathogen load when no antimicrobial is present.
(§6) Specimen Exposure to Antimicrobial Agents. The 1 mL aliquot of the specimen 100 previously mixed with culture media and incubated is obtained. Using optical density measurements as a guide, the specimen 100 is diluted to 0.5 McFarland.
(§7) Antimicrobial exposure plates are typically placed into an incubator for 12-16 hours.
(§8) Nucleic Acid Amplification of Antimicrobial Agent Exposed Pathogens. The antimicrobial exposure plate is removed after the period of incubation. The specimen then undergoes a purification or lysis step. For example, the specimen may undergo a purification step (e.g., magnetic bead-based or other separation protocol to isolate genetic material). In another example, the specimen may undergo a cell lysis step. For example, buffer (e.g., lysis buffer) may be added and incubated in the thermal cycler for preparation for direct PCR. Next, the specimen may undergo a polymerase chain reaction (PCR) testing protocol, whereby a semi-quantitative PCR method is utilized. This may be completed either with or without a specific extraction protocol step. The pathogens can be individually targeted and detected, or a universal genetic sequence can be utilized to detect the antimicrobial susceptibility of the specimen as a whole.

[2] = system: pathogens of clinical samples; assay: Molecular phenotypic antimicrobial susceptibility test of clinical samples, direct PCR without a separate DNA purification step (Table 6); assay type: cell-based
Description: as §1, §2, §3, §4, §5, §6, §7, §8

[3] = E. coli, clinical sample of r10-r24
[4] = E. coli, clinical sample of r158-r172
[5] = E. faecalis, clinical sample of r93-r99
[6] = E. faecalis, clinical sample of r114-r120
[7] = E. faecalis, clinical sample of r151-r157
[8] = K. aerogenes, clinical sample of r136-r150
[9] = K. pneumoniae, clinical sample of r121-r135
[10] = M. morganii, clinical sample of r55-r69
[11] = M. morganii, clinical sample of r70-r84
[12] = P. mirabilis, clinical sample of r25-r39
[13] = P. mirabilis, clinical sample of r40-r54
[14] = S. aureus, clinical sample of r85-r92

## C[C@H]1COc2c(N3CCN(C)CC3)c(F)cc3c(=O)c(C(=O)O)cn1c23 [Levofloxacin]
[1]; [3]
  Molecular Antibiotic Susceptibility Result: Resistant
[1]; E. coli, clinical sample of r10-r24, Ct Control Avg 18.112
  Ct: 17.903
[1]; [4]
  Molecular Antibiotic Susceptibility Result: Sensitive (Antimicrobial wells with pathogen load detected below the control wells (typically >2 cycle thresholds later) may be reported as Sensitive)
[1]; E. coli, clinical sample of r158-r172, Ct Control Avg 20.146
  Ct: 34.012
[1]; [5]
  Molecular Antibiotic Susceptibility Result: Sensitive (Antimicrobial wells with pathogen load detected below the control wells (typically >2 cycle thresholds later) may be reported as Sensitive)
[1]; E. faecalis, clinical sample of r93-r99, Ct Control Avg 22.987
  Ct: 37.857
[1]; E. faecalis, clinical sample of r100-r106, Ct Control Avg 23.073
  Ct: 38.337
[1]; E. faecalis, clinical sample of r107-r113, Ct Control Avg 22.144
  Ct: 29.347
[1]; [6]
  Molecular Antibiotic Susceptibility Result: Sensitive (Antimicrobial wells with pathogen load detected below the control wells (typically >2 cycle thresholds later) may be reported as Sensitive)
[1]; E. faecalis, clinical sample of r114-r120, Ct Control Avg 20.822
  Ct: 32.971
[1]; [7]
  Molecular Antibiotic Susceptibility Result: Sensitive (Antimicrobial wells with pathogen load detected below the control wells (typically >2 cycle thresholds later) may be reported as Sensitive)
[1]; E. faecalis, clinical sample of r151-r157, Ct Control Avg 20.56
  Ct: 37.926
[1]; [8]
  Molecular Antibiotic Susceptibility Result: Sensitive (Antimicrobial wells with pathogen load detected below the control wells (typically >2 cycle thresholds later) may be reported as Sensitive)
[1]; K. aerogenes, clinical sample of r136-r150, Ct Control Avg 19.994
  Ct: 38.019
[1]; [9]
  Molecular Antibiotic Susceptibility Result: Sensitive (Antimicrobial wells with pathogen load detected below the control wells (typically >2 cycle thresholds later) may be reported as Sensitive)
[1]; K. pneumoniae, clinical sample of r121-r135, Ct Control Avg 24.272
  Ct: 34.466
[1]; [10]
  Molecular Antibiotic Susceptibility Result: Sensitive (Antimicrobial wells with pathogen load detected below the control wells (typically >2 cycle thresholds later) may be reported as Sensitive)
[1]; [11]
  Molecular Antibiotic Susceptibility Result: Sensitive (Antimicrobial wells with pathogen load detected below the control wells (typically >2 cycle thresholds later) may be reported as Sensitive)
[1]; M. morganii, clinical sample of r70-r84, Ct Control Avg 27.053
  Ct: 37.67
[1]; [12]
  Molecular Antibiotic Susceptibility Result: Sensitive (Antimicrobial wells with pathogen load detected below the control wells (typically >2 cycle thresholds later) may be reported as Sensitive)
[1]; P. mirabilis, clinical sample of r25-r39, Ct Control Avg 26.064
  Ct: 33.029
[1]; [13]
  Molecular Antibiotic Susceptibility Result: Sensitive (Antimicrobial wells with pathogen load detected below the control wells (typically >2 cycle thresholds later) may be reported as Sensitive)
[1]; P. mirabilis, clinical sample of r40-r54, Ct Control Avg 26.987
  Ct: 33.384
[1]; [14]
  Molecular Antibiotic Susceptibility Result: Resistant
[1]; S. aureus, clinical sample of r85-r92, Ct Control Avg 24.32
  Ct: 19.106
[2]; [3]
  Molecular Antibiotic Susceptibility Result: Resistant
[2]; E. coli, clinical sample of r10-r24, Ct control avg 12.97
  Ct: 12.289
[2]; [4]
  Molecular Antibiotic Susceptibility Result: Sensitive (Antimicrobial wells with pathogen load detected below the control wells (typically >2 cycle thresholds later) may be reported as Sensitive)
[2]; E. coli, clinical sample of r158-r172, Ct control avg 12.894
  Ct: 29.603
[2]; [5]
  Molecular Antibiotic Susceptibility Result: Sensitive (Antimicrobial wells with pathogen load detected below the control wells (typically >2 cycle thresholds later) may be reported as Sensitive)
[2]; E. faecalis, clinical sample of r93-r99, Ct control avg 22.011
  Ct: 33.342
[2]; E. faecalis, clinical sample of r100-r106, Ct control avg 21.027
  Ct: 34.507
[2]; E. faecalis, clinical sample of r107-r113, Ct control avg 20.529
  Ct: 28.107
[2]; [6]
  Molecular Antibiotic Susceptibility Result: Sensitive (Antimicrobial wells with pathogen load detected below the control wells (typically >2 cycle thresholds later) may be reported as Sensitive)
[2]; E. faecalis, clinical sample of r114-r120, Ct control avg 20.909
  Ct: 30.072
[2]; [7]
  Molecular Antibiotic Susceptibility Result: Sensitive (Antimicrobial wells with pathogen load detected below the control wells (typically >2 cycle thresholds later) may be reported as Sensitive)
[2]; E. faecalis, clinical sample of r151-r157, Ct control avg 18.551
  Ct: 35.719
[2]; [8]
  Molecular Antibiotic Susceptibility Result: Sensitive (Antimicrobial wells with pathogen load detected below the control wells (typically >2 cycle thresholds later) may be reported as Sensitive)
[2]; K. aerogenes, clinical sample of r136-r150, Ct control avg 13.854
  Ct: 33.354
[2]; [9]
  Molecular Antibiotic Susceptibility Result: Sensitive (Antimicrobial wells with pathogen load detected below the control wells (typically >2 cycle thresholds later) may be reported as Sensitive)
[2]; K. pneumoniae, clinical sample of r121-r135, Ct control avg […]
  Ct: 32.085
[2]; [10]
  Molecular Antibiotic Susceptibility Result: Sensitive (Antimicrobial wells with pathogen load detected below the control wells (typically >2 cycle thresholds later) may be reported as Sensitive)
[2]; [11]
  Molecular Antibiotic Susceptibility Result: Sensitive (Antimicrobial wells with pathogen load detected below the control wells (typically >2 cycle thresholds later) may be reported as Sensitive)
[2]; M. morganii, clinical sample of r70-r84, Ct control avg 11.677
  Ct: 29.614
[2]; [12]
  Molecular Antibiotic Susceptibility Result: Sensitive (Antimicrobial wells with pathogen load detected below the control wells (typically >2 cycle thresholds later) may be reported as Sensitive)
[2]; P. mirabilis, clinical sample of r25-r39, Ct control avg 11.801
  Ct: 25.775
[2]; [13]
  Molecular Antibiotic Susceptibility Result: Sensitive (Antimicrobial wells with pathogen load detected below the control wells (typically >2 cycle thresholds later) may be reported as Sensitive)
[2]; P. mirabilis, clinical sample of r40-r54, Ct control avg 10.06
  Ct: 30.018
[2]; [14]
  Molecular Antibiotic Susceptibility Result: Resistant
[2]; S. aureus, clinical sample of r85-r92, Ct control avg 20.309
  Ct: 16.32
